According to patent US9453044:
Read-outs that look alike come from different tables or passages of the source.

Conditions: amide bond, salicylaldehyde ester ligation, TFA, 2 steps

Compound: CC(C)C[C@@H]1NC(=O)[C@H](Cc2ccccc2)NC(=O)[C@H](CO)NC(=O)[C@H](C)NC(=O)[C@H](Cc2ccccc2)NC1=O [SFLFA]
- ring closure, yield after HPLC (from H-Ser-Phe-Leu-Phe-Ala-OPhCHO?, 15-membered ring): 35%

Compound: CC(C)C[C@@H]1NC(=O)[C@H](Cc2ccccc2)NC(=O)[C@H](C)NC(=O)[C@H](CCCCN)NC(=O)CNC(=O)[C@H](CO)NC1=O [SGKAFL]
- ring closure, yield after HPLC (from H-Ser-Gly-Lys-Ala-Phe-Leu-OPhCHO?, 18-membered ring): 39%

Compound: CC(C)C[C@@H]1NC(=O)CNC(=O)[C@H](CO)NC(=O)CNC(=O)[C@H](C)NC(=O)[C@H](Cc2ccccc2)NC(=O)CNC(=O)[C@H](Cc2ccccc2)NC1=O [SGLFGFAG]
- ring closure, yield after HPLC (from H-Ser-Gly-Leu-Phe-Gly-Phe-Ala-Gly-OPhCHO?, 24-membered ring): 65%

Compound: CC(C)C[C@@H]1NC(=O)CNC(=O)[C@H](CO)NC(=O)CNC(=O)[C@H](C)NC(=O)[C@H](Cc2ccccc2)NC(=O)CNC(=O)[C@H](Cc2ccc(O)cc2)NC1=O [SGLYGFAG]
- ring closure, yield after HPLC (from H-Ser-Gly-Leu-Tyr-Gly-Phe-Ala-Gly-OPhCHO?, 24-membered ring): 52%

Compound: CC(C)C[C@@H]1NC(=O)[C@H](CO)NC(=O)[C@H](CC(C)C)NC(=O)[C@H](CO)NC1=O [SLSL]
- ring closure, yield after HPLC (from H-Ser-Leu-Ser-Leu-OPhCHO?, 12-membered ring): 20%

Compound: C[C@@H](O)[C@@H]1NC(=O)CNC(=O)[C@H](Cc2ccccc2)NC(=O)[C@H](Cc2ccccc2)NC(=O)CNC(=O)[C@H](Cc2ccccc2)NC(=O)[C@H](Cc2ccccc2)NC1=O [TFFGFFG]
- ring closure, yield after HPLC (from H-Thr-Phe-Phe-Gly-Phe-Phe-Gly-OPhCHO?, 21-membered ring): 56%

Compound: CC(C)C[C@@H]1NC(=O)CNC(=O)[C@H]([C@@H](C)O)NC(=O)CNC(=O)[C@H](C)NC(=O)[C@H](Cc2ccccc2)NC(=O)CNC(=O)[C@H](Cc2ccccc2)NC1=O [TGLFGFAG]
- ring closure, yield after HPLC (from H-Thr-Gly-Leu-Phe-Gly-Phe-Ala-Gly-OPhCHO?, 24-membered ring): 63%
